Assay results: ChEMBL document CHEMBL1909046, “DrugMatrix in vitro pharmacology data”

Tests used:
[1] = DRUGMATRIX: ATPase, Na+/K+ enzyme inhibition (substrate: ATP); format: tissue-based, Sus scrofa, Heart; conditions: Not Active = under 50% inhibition at 10 µM
[2] = DRUGMATRIX: Purinergic P2X radioligand binding (ligand: [3H] alpha, beta-Methylene-ATP); format: cell membranes, Oryctolagus cuniculus, New Zealand albino, Urinary bladder, Membrane; conditions: Not Active = under 50% inhibition at 10 µM
Melanocortin receptor 5 = Melanocortin receptor 5 (Homo sapiens, UniProt P33032); format: cell membranes, HEK293, Membrane; note: in other assays of this panel Not Active means under 50% inhibition at 10 µM
Neutrophil elastase = biological target: T1, Neutrophil elastase (Homo sapiens, UniProt P08246); format: tissue-based;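 note: inhibition of neutrophil elastase enzyme activity, measured with a p-nitroanilide-linked peptide substrate; in other assays of this panel Not Active means under 50% inhibition at 10 µM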
T1 sequence (P08246 whole entry): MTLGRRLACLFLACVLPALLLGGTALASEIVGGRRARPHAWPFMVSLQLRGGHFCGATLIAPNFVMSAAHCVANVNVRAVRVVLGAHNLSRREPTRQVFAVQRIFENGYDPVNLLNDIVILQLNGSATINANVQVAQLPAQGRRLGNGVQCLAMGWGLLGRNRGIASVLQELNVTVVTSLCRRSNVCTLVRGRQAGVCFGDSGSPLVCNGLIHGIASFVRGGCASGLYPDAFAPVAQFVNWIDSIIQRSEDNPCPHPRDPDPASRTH

[3] = DRUGMATRIX: Interleukin IL-1 radioligand binding (ligand: [125I] interleukin 1beta); format: cell membranes, Membrane; conditions: nih3t3; Not Active = under 50% inhibition at 10 µM
Acetylcholinesterase = Acetylcholinesterase (Homo sapiens, UniProt P22303); test: DRUGMATRIX: Acetylcholinesterase enzyme inhibition (substrate: acetylthiocholine); format: cell-based, HEK293; conditions: Not Active = under 50% inhibition at 10 µM
Glycine receptor = Glycine receptor (Rattus norvegicus, UniProt P22771+P24524+P07727+P20781); format: cell membranes, Wistar, Spinal cord, Membrane; note: in other assays of this panel Not Active means under 50% inhibition at 10 µM
[4] = biological target: T2, 5-hydroxytryptamine receptor 2C (Homo sapiens, UniProt P28335); test: DRUGMATRIX: Serotonin (5-Hydroxytryptamine) 5-HT2C radioligand binding (ligand: [3H] Mesulergine); format: cell membranes, CHO-K1, Membrane; conditions: Not Active = under 50% inhibition at 10 µM; for Ki: read-out: Ki
T2 sequence (P28335 whole entry): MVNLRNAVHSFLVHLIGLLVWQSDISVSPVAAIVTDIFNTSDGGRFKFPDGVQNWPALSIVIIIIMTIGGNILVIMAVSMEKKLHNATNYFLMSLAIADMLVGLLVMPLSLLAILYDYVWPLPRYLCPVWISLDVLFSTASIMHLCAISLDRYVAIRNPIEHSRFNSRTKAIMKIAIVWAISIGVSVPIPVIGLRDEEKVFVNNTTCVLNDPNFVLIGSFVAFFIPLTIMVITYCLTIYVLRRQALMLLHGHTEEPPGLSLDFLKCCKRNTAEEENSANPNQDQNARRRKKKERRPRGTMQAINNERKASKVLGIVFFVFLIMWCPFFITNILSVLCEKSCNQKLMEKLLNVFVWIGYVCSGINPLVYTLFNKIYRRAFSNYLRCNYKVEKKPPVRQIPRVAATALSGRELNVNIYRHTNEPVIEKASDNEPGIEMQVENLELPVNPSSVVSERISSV

[5] = biological target: Tyrosine-protein kinase Lck (Homo sapiens, UniProt P06239); test: DRUGMATRIX: Protein Tyrosine Kinase, LCK enzyme inhibition (substrate: Poly(Glu:Tyr)); format: cell-based, Insect cells; conditions: Not Active = under 50% inhibition at 10 µM
Substance-P receptor = Substance-P receptor (Homo sapiens, UniProt P25103); format: cell membranes, CHO, Membrane; note: in other assays of this panel Not Active means under 50% inhibition at 10 µM
[6] = biological target: T3, Muscarinic acetylcholine receptor M2 (Homo sapiens, UniProt P08172); format: cell membranes, CHO-K1, Membrane; conditions: for Ki: read-out: Ki
T3 sequence (P08172 whole entry): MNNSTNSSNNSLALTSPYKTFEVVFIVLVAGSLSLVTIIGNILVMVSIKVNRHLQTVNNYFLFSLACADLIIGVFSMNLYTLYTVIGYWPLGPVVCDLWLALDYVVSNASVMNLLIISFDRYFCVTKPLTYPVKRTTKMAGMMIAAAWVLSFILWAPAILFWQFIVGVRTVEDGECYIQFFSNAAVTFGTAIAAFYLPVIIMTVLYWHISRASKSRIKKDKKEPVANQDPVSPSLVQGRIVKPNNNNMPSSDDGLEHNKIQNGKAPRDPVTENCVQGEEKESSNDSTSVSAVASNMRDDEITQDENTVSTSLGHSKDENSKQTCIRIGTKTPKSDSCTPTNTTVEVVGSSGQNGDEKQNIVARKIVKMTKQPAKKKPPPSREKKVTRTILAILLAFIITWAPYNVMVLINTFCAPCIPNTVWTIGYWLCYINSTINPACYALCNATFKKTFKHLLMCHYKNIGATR

Cathepsin G = biological target: T4, Cathepsin G (Homo sapiens, UniProt P08311); format: tissue-based; conditions: neutrophil
T4 sequence (P08311 whole entry): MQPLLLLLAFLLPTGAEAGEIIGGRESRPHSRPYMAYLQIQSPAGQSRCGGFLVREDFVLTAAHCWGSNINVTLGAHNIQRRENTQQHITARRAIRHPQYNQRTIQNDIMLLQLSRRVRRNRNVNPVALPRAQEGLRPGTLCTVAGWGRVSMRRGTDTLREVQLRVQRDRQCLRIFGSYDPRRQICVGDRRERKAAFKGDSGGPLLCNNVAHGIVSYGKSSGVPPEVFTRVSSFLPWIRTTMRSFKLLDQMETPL

Adenosine receptor A1 = biological target: T5, Adenosine receptor A1 (Homo sapiens, UniProt P30542); format: cell membranes, CHO, Membrane; conditions: cho
T5 sequence (P30542 whole entry): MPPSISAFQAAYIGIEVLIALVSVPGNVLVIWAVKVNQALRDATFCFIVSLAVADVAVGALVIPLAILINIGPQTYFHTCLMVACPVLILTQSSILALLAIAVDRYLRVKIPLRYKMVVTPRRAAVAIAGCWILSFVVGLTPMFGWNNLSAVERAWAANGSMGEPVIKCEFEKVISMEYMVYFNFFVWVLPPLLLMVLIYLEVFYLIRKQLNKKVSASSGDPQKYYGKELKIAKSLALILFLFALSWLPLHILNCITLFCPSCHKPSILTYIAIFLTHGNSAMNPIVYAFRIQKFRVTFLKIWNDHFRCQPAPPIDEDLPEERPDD

Chain of Acetylcholinesterase (P22303 whole entry): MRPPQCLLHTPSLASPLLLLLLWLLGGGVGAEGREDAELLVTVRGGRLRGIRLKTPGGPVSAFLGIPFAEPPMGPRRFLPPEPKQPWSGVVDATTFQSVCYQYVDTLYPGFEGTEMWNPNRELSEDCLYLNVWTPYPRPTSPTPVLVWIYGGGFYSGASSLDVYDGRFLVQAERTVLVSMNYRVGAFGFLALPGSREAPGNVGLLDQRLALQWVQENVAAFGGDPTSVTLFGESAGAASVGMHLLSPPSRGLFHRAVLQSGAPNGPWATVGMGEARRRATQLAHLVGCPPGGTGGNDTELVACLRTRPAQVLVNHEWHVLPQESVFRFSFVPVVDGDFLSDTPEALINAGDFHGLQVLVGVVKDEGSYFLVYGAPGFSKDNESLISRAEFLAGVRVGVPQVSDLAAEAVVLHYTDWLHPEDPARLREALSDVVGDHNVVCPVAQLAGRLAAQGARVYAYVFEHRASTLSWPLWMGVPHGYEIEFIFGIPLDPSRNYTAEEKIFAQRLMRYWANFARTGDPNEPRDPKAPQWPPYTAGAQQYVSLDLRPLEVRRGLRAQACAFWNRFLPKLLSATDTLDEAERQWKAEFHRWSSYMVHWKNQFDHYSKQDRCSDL
Chain of Substance-P receptor (P25103 whole entry): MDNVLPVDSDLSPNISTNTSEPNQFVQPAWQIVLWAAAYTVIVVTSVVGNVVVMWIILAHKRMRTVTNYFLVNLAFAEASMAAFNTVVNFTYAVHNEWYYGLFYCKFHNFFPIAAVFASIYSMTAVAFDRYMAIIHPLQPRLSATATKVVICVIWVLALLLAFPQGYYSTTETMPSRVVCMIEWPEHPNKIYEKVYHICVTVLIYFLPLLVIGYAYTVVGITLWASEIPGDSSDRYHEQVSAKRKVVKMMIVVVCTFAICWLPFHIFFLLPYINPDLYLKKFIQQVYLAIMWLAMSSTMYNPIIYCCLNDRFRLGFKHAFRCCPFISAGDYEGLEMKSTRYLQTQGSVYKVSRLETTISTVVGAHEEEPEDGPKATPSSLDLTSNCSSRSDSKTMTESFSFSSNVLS
Chain of Tyrosine-protein kinase Lck (P06239 whole entry): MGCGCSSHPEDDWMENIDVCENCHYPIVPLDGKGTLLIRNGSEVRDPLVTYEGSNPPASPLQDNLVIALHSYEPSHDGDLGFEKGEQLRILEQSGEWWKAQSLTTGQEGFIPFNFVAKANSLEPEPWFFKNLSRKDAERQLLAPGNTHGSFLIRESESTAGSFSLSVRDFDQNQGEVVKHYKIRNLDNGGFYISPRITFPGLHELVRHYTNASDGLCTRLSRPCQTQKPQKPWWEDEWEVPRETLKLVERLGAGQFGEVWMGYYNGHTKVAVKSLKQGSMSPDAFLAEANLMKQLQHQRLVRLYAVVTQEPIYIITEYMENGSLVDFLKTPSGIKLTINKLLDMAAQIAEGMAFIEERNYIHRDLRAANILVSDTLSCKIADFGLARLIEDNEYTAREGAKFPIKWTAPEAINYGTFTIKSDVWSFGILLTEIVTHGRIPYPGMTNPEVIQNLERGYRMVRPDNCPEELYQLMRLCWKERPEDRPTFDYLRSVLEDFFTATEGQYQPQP
Chain of Melanocortin receptor 5 (P33032 whole entry): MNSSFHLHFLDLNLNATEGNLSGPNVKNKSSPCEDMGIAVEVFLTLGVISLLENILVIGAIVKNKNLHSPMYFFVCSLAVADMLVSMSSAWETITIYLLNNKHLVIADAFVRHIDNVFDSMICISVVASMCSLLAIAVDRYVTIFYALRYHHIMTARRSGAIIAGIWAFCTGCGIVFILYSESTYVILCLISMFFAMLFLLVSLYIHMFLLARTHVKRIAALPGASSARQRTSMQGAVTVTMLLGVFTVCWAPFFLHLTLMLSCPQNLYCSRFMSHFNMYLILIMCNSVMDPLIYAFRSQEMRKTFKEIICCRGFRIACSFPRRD

Row | Structure (SMILES) | IC50 [1] | Ki [1] | IC50 [2] | Ki [2] | IC50 (Melanocortin receptor 5; hek293) | IC50 (Neutrophil elastase) | IC50 [3] | Ki [3] | IC50 (Acetylcholinesterase; hek293) | IC50 (Glycine receptor) | IC50 ([4]; cho-k1) | IC50 ([5]; insect cells) | IC50 (Substance-P receptor; cho) | IC50 ([6]; cho-k1) | IC50 (Cathepsin G) | IC50 (Adenosine receptor A1) | other results
1 | CCOC(=O)[C@H](CCc1ccccc1)N[C@@H](C)C(=O)N1[C@H](C(=O)O)C[C@@H]2CCC[C@@H]21 | Not Active | Not Active | Not Active | Not Active | Not Active | Not Active | Not Active | Not Active | Not Active | Not Active | Not Active | Not Active | Not Active | Not Active | Not Active | Not Active | 
2 | CC(C)(C)NC(=O)[C@@H]1CN(Cc2cccnc2)CCN1C[C@@H](O)C[C@@H](Cc1ccccc1)C(=O)N[C@H]1c2ccccc2C[C@H]1O.O | Not Active | Not Active | Not Active | Not Active | Not Active | Not Active | Not Active | Not Active | Not Active | Not Active | Not Active | Not Active | Not Active | Not Active | Not Active | Not Active | 
3 | CC1(C)[C@H]2CC[C@]1(C)C(=O)C2 [(-)-CAMPHOR] | Not Active | Not Active | Not Active | Not Active | Not Active | Not Active | Not Active | Not Active | Not Active | Not Active | Not Active | Not Active | Not Active | Not Active | Not Active | Not Active | 
4 | CC(C)(C)NCC(O)c1ccc(O)c(CO)c1 (stereo not given) [ALBUTEROL] | Not Active | Not Active | Not Active | Not Active | Not Active | Not Active | Not Active | Not Active | Not Active | Not Active | Not Active | Not Active | Not Active | Not Active | Not Active | Not Active | 
5 | COc1ccc(CCN2CCC(Nc3nc4ccccc4n3Cc3ccc(F)cc3)CC2)cc1 [ASTEMIZOLE] |  |  |  |  |  | Not Active |  |  | Not Active | Not Active |  |  |  |  | Not Active | Not Active | IC50 (Melanocortin receptor 5; read-out: IC50): 2.26 µM; Ki (Melanocortin receptor 5; read-out: Ki): 2.12 µM; IC50 ([5]; read-out: IC50): 19.9 µM
6 | CN(C)CCCN1c2ccccc2CCc2ccc(Cl)cc21 [CLOMIPRAMINE] |  |  |  |  | Not Active | Not Active |  |  | Not Active | Not Active |  | Not Active | Not Active |  | Not Active | Not Active | IC50 ([4]; read-out: IC50): 0.034 µM; Ki [4]: 0.018 µM; IC50 ([6]; read-out: IC50): 0.241 µM; Ki [6]: 0.086 µM
7 | Clc1ccccc1C(c1ccccc1)(c1ccccc1)n1ccnc1 [CLOTRIMAZOLE] |  |  |  |  | Not Active | Not Active |  |  |  | Not Active |  | Not Active |  |  | Not Active |  | IC50 (Acetylcholinesterase; read-out: IC50): 19.4 µM; IC50 ([4]; read-out: IC50): 14.5 µM; Ki [4]: 7.58 µM; IC50 (Substance-P receptor; read-out: IC50): 16 µM; Ki (Substance-P receptor; read-out: Ki): 8.75 µM; IC50 ([6]; read-out: IC50): 14.5 µM; Ki [6]: 5.17 µM
8 | O=C(CCCN1CCC(O)(c2ccc(Cl)cc2)CC1)c1ccc(F)cc1 [HALOPERIDOL] |  |  |  |  | Not Active | Not Active |  |  | Not Active | Not Active |  | Not Active | Not Active | Not Active | Not Active | Not Active | 
9 | CN1CCN2c3ccccc3Cc3ccccc3C2C1 (stereo not given) [MIANSERIN] |  |  |  |  | Not Active | Not Active |  |  | Not Active | Not Active |  | Not Active | Not Active |  | Not Active | Not Active | 
10 | O=C1c2c(O)ccc(O)c2C(=O)c2c(NCCNCCO)ccc(NCCNCCO)c21 [MITOXANTRONE] | Not Active | Not Active | Not Active | Not Active | Not Active | Not Active | Not Active | Not Active | Not Active | Not Active |  | Not Active | Not Active |  | Not Active | Not Active | 
11 | CC(C)(O)c1ccccc1CC[C@@H](SCC1(CC(=O)O)CC1)c1cccc(/C=C/c2ccc3ccc(Cl)cc3n2)c1 [MONTELUKAST] |  |  |  |  | Not Active | Not Active |  |  | Not Active | Not Active | Not Active | Not Active | Not Active | Not Active | Not Active | Not Active | 
12 | CSc1ccc2c(c1)N(CCC1CCCCN1C)c1ccccc1S2 (stereo not given) [THIORIDAZINE] |  |  |  |  | Not Active | Not Active |  |  | Not Active | Not Active |  | Not Active | Not Active |  | Not Active | Not Active | 
13 | COc1cccc(C2(O)CCCCC2CN(C)C)c1 (stereo not given) [TRAMADOL] |  |  |  |  | Not Active | Not Active |  |  | Not Active | Not Active | Not Active | Not Active | Not Active | Not Active | Not Active | Not Active | 
